Assay results: patent US10709711B2 (G1 Therapeutics, Inc., priority 2013, dated 2020)

Key:
[1] = tested on: Daudi (human B-lymphoblastoid cell from Burkitt's Lymphoma patient); assay: Inhibition of cellular proliferation, Daudi cells (CellTiter-Glo); assay type: cell-based; conditions: EC50 measured as illustrated in Example 150 (CellTiter-Glo)
Procedure: (§1) The SupT1 cells were seeded in Costar (Tewksbury, Mass.) 3093 96 well tissue culture treated white walled/clear bottom plates. A nine point dose response dilution series from 10 uM to 1 nM was performed and cell viability was determined after four days as indicated using the CellTiter-Glo® assay (CTG; Promega, Madison, Wis., United States of America) following the manufacturer's recommendations. Plates were read on a BioTek (Winooski, Vt.) Syngergy2 multi-mode plate reader. The Relative Light Units (RLU) were plotted as a result of variable molar concentration and data was analyzed using Graphpad (LaJolla, Calif.) Prism 5 statistical software to determine the IC50 for each compound.
(§2) The compounds listed in Table 1 were tested for the inhibition of cellular proliferation using SupT1 (human T-cell lymphoblastic leukemia) and Daudi (human B-lymphoblastoid cell from Burkitt's Lymphoma patient).

[2] = tested on: SupT1 cells (human T-cell lymphoblastic leukemia); assay: Inhibition of cellular proliferation, SupT1 cells (CellTiter-Glo); assay type: cell-based; conditions: SUP-T1, 96 h, cell viability after four days, nine point dilution series 10 uM to 1 nM
Procedure: as §1, §2

| SMILES | EC50 [1] [nM] | EC50 [2] [nM] |
| --- | --- | --- |
| CCC(C)CN1[C@H](C)CN(c2ccc(Nc3ncc4cc5n(c4n3)C3(CCCC3)CNC5=O)nc2)C[C@@H]1C (stereo partly shown) [JJJ] | 448 | 143 |
| CCN(CC)C1CCN(C(=O)c2ccc(Nc3ncc4cc5n(c4n3)C3(CCCCC3)CNC5=O)nc2)C1 (stereo not shown) [JJ] | 389 | 49 |
| C[C@@H]1CN(c2ccc(Nc3ncc4cc5n(c4n3)C3(CCCCC3)CNC5=O)nc2)CCN1C[C@@H](C)O [J] | 362 | 47 |
| C[C@H]1CN(c2ccc(Nc3ncc4cc5n(c4n3)C3(CCCCC3)CNC5=O)nc2)CCN1 [KK] | 147 | 112 |
| CC1CCN(C2CCN(c3ccc(Nc4ncc5cc6n(c5n4)C4(CCCCC4)CNC6=O)nc3)CC2)C1 (stereo not shown) [K] | 167 | 134 |
| CCN(CC)C1CCN(c2ccc(Nc3ncc4cc5n(c4n3)C3(CCCC3)CNC5=O)nc2)CC1 [LLL] | 1550 | 241 |
| O=C1NCC2(CCCCC2)n2c1cc1cnc(Nc3ccc(C(=O)N4CCN(C5CCC5)CC4)cn3)nc12 [LL] | 501 | 84 |
| CC(C)N1CCN(c2ccc(Nc3ncc4cc5n(c4n3)C3(CCCCC3)CNC5=O)nc2)C[C@H]1C [L] | 1260 | 153 |
| CCOCCN1CCN(c2ccc(Nc3ncc4cc5n(c4n3)C3(CCCC3)CNC5=O)nc2)CC1 [MMM] | 294 | 37 |
| C[C@@H]1CN(c2ccc(Nc3ncc4cc5n(c4n3)C3(CCCCC3)CNC5=O)nc2)C[C@H](C)N1C[C@@H](C)O [MM] | 681 | 84 |
| C[C@@H]1CN(c2ccc(Nc3ncc4cc5n(c4n3)C3(CCCCC3)CNC5=O)nc2)C[C@H](C)N1CCC(C)(C)C [M] | 1460 | 184 |
| CC1CN(c2ccc(Nc3ncc4cc5n(c4n3)C3(CCCC3)CNC5=O)nc2)CCN1CC1CC1 (stereo not shown) [NNN] | 519 | 160 |
| C[C@@H]1CN(c2ccc(Nc3ncc4cc5n(c4n3)C3(CCCCC3)CNC5=O)nc2)CCN1C [NN] | 1040 | 84 |
| O=C1NCC2(CCCCC2)n2c1cc1cnc(Nc3ccc(N4CCC(N5CCCCC5)CC4)cn3)nc12 [N] | 122 | 34 |
| O=C1NCC2(CCCC2)n2c1cc1cnc(Nc3ccc(C(=O)N4CCN(CC5CC5)CC4)cn3)nc12 [OOO] | 668 | 104 |
| CC1CN(c2ccc(Nc3ncc4cc5n(c4n3)C3(CCCCC3)CNC5=O)nc2)CC(C)N1CC1CC1 (stereo not shown) [OO] | 880 | 114 |
| CN(C)C1CCN(c2ccc(Nc3ncc4cc5n(c4n3)C3(CCCCC3)CNC5=O)nc2)CC1 [O] | 123 | 44 |
| CC(C)N1CCN(c2ccc(Nc3ncc4cc5n(c4n3)C3(CCCCC3)CNC5=O)nc2)CC1C (stereo not shown) [PP] | 260 | 81 |
| C[C@@H]1CN(c2ccc(Nc3ncc4cc5n(c4n3)C3(CCCCC3)CNC5=O)nc2)C[C@H](C)N1 [P] | 140 | 33 |
| O=C1NCC2(CCCC2)n2c1cc1cnc(Nc3ccc(N4CCNCC4)cn3)nc12 [QQQ] | 485 | 258 |
| CCN(CC)C1CCN(c2ccc(Nc3ncc4cc5n(c4n3)C3(CCCCC3)CNC5=O)nc2)C1 (stereo not shown) [QQ] | 851 | 68 |
| O=C1NCC2(CCCCC2)n2c1cc1cnc(Nc3ccc(N4CCNCC4)cn3)nc12 [Q] | 561 | 40 |
| CC(C)N1CCN(c2ccc(Nc3ncc4cc5n(c4n3)C3(CCCC3)CNC5=O)nn2)CC1 [RRR] | 2010 | 278 |
| CCN(CC)C1CCN(C2CCN(c3ccc(Nc4ncc5cc6n(c5n4)C4(CCCCC4)CNC6=O)nc3)CC2)C1 (stereo not shown) [RR] | 158 | 102 |

| SMILES | EC50 [1] [nM] | EC50 [2] [nM] |
| --- | --- | --- |
| C[C@H]1CN(c2ccc(Nc3ncc4cc5n(c4n3)C3(CCCCC3)CNC5=O)nc2)CCN1C [R] | 299 | 43 |
| O=C1NCC2(CCCC2)n2c1cc1cnc(Nc3ccc(N4CCOCC4)nn3)nc12 [SSS] | > 3000 | 305 |
| CN(C)C1CCN(c2ccc(Nc3ncc4cc5n(c4n3)C3(CCCCC3)CNC5=O)nn2)CC1 [SS] | 967 | 11 |
| C[C@@H](O)CN1CCN(c2ccc(Nc3ncc4cc5n(c4n3)C3(CCCCC3)CNC5=O)nc2)CC1 [S] | 634 | 110 |
| CN(C)C1CCN(c2ccc(Nc3ncc4cc5n(c4n3)C3(CCCC3)CNC5=O)nn2)CC1 [TTT] | 3300 | 587 |
| CC(C)N1CCN(c2ccc(Nc3ncc4cc5n(c4n3)C3(CCCCC3)CNC5=O)nn2)CC1 [TT] | 589 | 92 |
| CN1CCN(c2ccc(Nc3ncc4cc5n(c4n3)C3(CCCCC3)CNC5=O)nc2)CC1 [T] | 392 | 113 |
| CC(C)[C@H]1CNC(=O)c2cc3cnc(Nc4ccc(N5CCNCC5)cn4)nc3n21 [UUU] | 1420 | 311 |
| CCN(CC)C1CCN(c2ccc(Nc3ncc4cc5n(c4n3)C3(CCCC3)CNC5=O)nc2)C1 (stereo not shown) [UU] | 3160 | 228 |
| O=C1NCC2(CCCCC2)n2c1cc1cnc(Nc3ccc(N4CCC(N5CCOCC5)CC4)cn3)nc12 [U] | 363 | 48 |
| CCC(C)[C@@H]1CNC(=O)c2cc3cnc(Nc4ccc(N5CCNCC5)cn4)nc3n21 (stereo partly shown) [VVV] | 1070 | 224 |
| C[C@@H](O)CN1CCN(c2ccc(Nc3ncc4cc5n(c4n3)C3(CCCC3)CNC5=O)nc2)C[C@@H]1C [VV] | 683 | 115 |
| C[C@@H]1CN(c2ccc(Nc3ncc4cc5n(c4n3)C3(CCCCC3)CNC5=O)nc2)CCN1 [V] | 194 | 35 |
| CC(C)C[C@@H]1CNC(=O)c2cc3cnc(Nc4ccc(N5CCNCC5)cn4)nc3n21 [WWW] | 1270 | 264 |
| O=C1NCC2(CCCC2)n2c1cc1cnc(Nc3ccc(N4CCC(N5CCOCC5)CC4)cn3)nc12 [WW] | 1690 | 77 |
| CC1CN(c2ccc(Nc3ncc4cc5n(c4n3)C3(CCCCC3)CNC5=O)nc2)CCN1CC(C)(C)O (stereo not shown) [W] | 731 | 57 |
| CC(C)C[C@@H]1CNC(=O)c2cc3cnc(Nc4ccc(N5CCN(C)CC5)cn4)nc3n21 [XXX] | 1170 | 270 |
| C[C@H](O)CN1CCN(c2ccc(Nc3ncc4cc5n(c4n3)C3(CCCC3)CNC5=O)nc2)C[C@H]1C [XX] | 499 | 94 |
| O=C1NCC2(CCCCC2)n2c1cc1cnc(Nc3ccc(N4CCC(N5CCC(C(F)(F)F)CC5)CC4)cn3)nc12 [X] | 318 | 36 |
| CN(C)C1CCN(c2ccc(Nc3ncc4cc5n(c4n3)C3(CCCC3)CNC5=O)nc2)CC1 [YY] | 356 | 97 |
| O=C1NCC2(CCCCC2)n2c1cc1cnc(Nc3ccc(C(=O)N4CCNCC4)cn3)nc12 [Y] | 548 | 85 |
| CN1CCN(c2ccc(Nc3ncc4cc5n(c4n3)C3(CCCC3)CNC5=O)nc2)CC1 [ZZ] | 584 | 272 |
| C[C@H](O)CN1[C@H](C)CN(c2ccc(Nc3ncc4cc5n(c4n3)C3(CCCCC3)CNC5=O)nc2)C[C@@H]1C [Z] | 359 | 87 |
